Experiments:
[1] = propidium iodide flow cytometry, PBMC all cells, whole blood; type: cell-based; conditions: human, mean ± SD of 2 experiments
Procedure: FIGS. 15A, 15B, and 15C depict TUNEL analysis of PBMC treated with taurolidine in whole blood, for control cells, taurolidine-treated cells, and anisomycin-treated cells, respectively . Cells were incubated with 500 μg/ml taurolidine for 4 hours, resuspended in fresh medium, incubated for two hours further and processed for TUNEL analysis. Parallel samples were stained with FITC-conjugated anti-CD14 and PI as described herein. Ten thousand events were recorded per sample. TUNEL signal (x -axis) is a measure of DNA fragmentation, while FSC (y-axis) is related to cell size. TUNEL-negative lymphocytes are bounded by rectangle R 1, while TUNEL-negative monocytes (CD 14 positive cells) are bounded by rectangle R2. […]
In the second method, DNA fragmentation was detected via TUNEL assay according to the manufacturer's instructions. With this methodology, 2×10^6 cells were fixed with 2% paraformaldehyde, permeabilized with 0.1% Triton X-100/0.1% citrate, incubated at 37° C. with terminal deoxynucleotidyl transferase and FITC-dUTP, rinsed and analyzed by flow cytometry. […] Parallel aliquots of unfixed cells were treated with PI and FITC-conjugated anti-CD14 and analyzed by flow cytometry, in order to identify cells with permeable cell membranes (since PI binds to DNA but is excluded from cells with intact plasma membranes) and also to determine the cell-specificity of the apoptotic signal. […]

tissue factor (TF) = assay: LPS-induced tissue factor (TF) expression in MM6 cells, ELISA; type: cell-based, human; conditions: for inhibition of LPS-induced TF expression: 4 h
Procedure: FIG. 2A represents MM6 cells; FIG. 2B represents PBMC. The cells were induced with LPS (hatched bars: 100 ng/ml LPS in RPMI supplemented with 10% BCS (RPMI+10% BCS); solid bars: 10 ng/ml in AIM-V+0.01% BCS) in the presence of varying concentrations of taurolidine,or with a dilution of the vehicle equivalent to that given to cells receiving 100 μg/ml taurolidine. After four hours, cells were collected and lysates were prepared for TF ELISA. Data are expressed as percent of TF antigen measured in cells treated with LPS alone (no taurolidine or vehicle). Experiments were performed with duplicate samples and were repeated at least three times. Values shown are mean±SEM of all experiments.
All cells were cultured in a 5% CO2 atmosphere at 37° C. MM6 cells were grown in RPMI supplemented with 10% BCS, 2 mM L-glutamine, and 50 μg/ml gentamicin (RPMI+10% BCS). In some experiments, MM6 cells were rinsed once with HBSS without Ca^++ or Mg^++ and once with AIM-V before finally being resuspended in AIM-V supplemented with 0.01% BCS (AIM-V+0.01% BCS). […] AIM-V was supplemented with a low amount of BCS (0.01%) in order to provide a source of LPS-binding protein, which enhances the response of monocytic cells to LPS. […] HL-60, REH, and Jurkat were cultured in RPMI supplemented with 10% heat inactivated fetal bovine serum (FBS), 2 mM L-glutamine, and 50 μg/ml gentamicin. ECV304 were cultured in M199 supplemented with 10% FBS, mM L-glutamine, and 50 μg/ml gentamicin. GM5387 was cultured in MEM supplemented with 20% FBS, 2 mM L-glutamine, and 50 μg/ml gentamicin.
For induction of TF or TNFα expression, MM6 cells or PBMC were cultured either in RPMI supplemented with 10% BCS or in AIM-V+0.01% BCS, and stimulated by adding LPS to final concentrations of 10 to 100 ng/ml. […] Except as noted, taurolidine and LPS were added to the cell cultures simultaneously. For TF determination, cells and culture media together were treated by adding Triton X-100 (1% final) and EDTA (7 mmol/L final), and the resulting lysates assayed by ELISA. […] For TNFα determination, cells were removed by centrifugation for 5 min at 250×g, and the supernatants were assayed by ELISA.

[2] = system: ECV304 (endothelial cells); assay: trypan blue exclusion, ECV304; type: cell-based, human; conditions: ECV304, after taurolidine treatment
Procedure: FIGS. 10A and 10B depict cell viability and growth rates for ECV304 cell line following taurolidine treatment, in terms of % trypan blue negative cells and % cell number, respectively. Cells were treated with various concentrations of taurolidine for 4 hours in AIM-V+0.01% BCS. After aliquots were collected for LDH assay, the remainder of the culture was rinsed in HBSS and resuspended in RPMI+10% BCS without taurolidine. Counts of trypan blue-negative cells (FIG. 10A), and total cell number (FIG. 10B), were recorded daily thereafter (with the measurement at Day 1 being made immediately after the 4 hour taurolidine treatment). Conditions were: no treatment (open circles); 25 μg/ml taurolidine (closed circles); 50 μg/ml taurolidine (open squares); 100 μg/ml taurolidine (closed squares); and vehicle alone (closed triangles). Doubling times were determined under each condition, and expressed as a percentage of the rate of doubling of untreated cells. These values are located to the right of the growth curves in (FIG. 10B). […]
HL-60 cells treated with 50 μl taurolidine. In these samples, LDH present in the culture medium was 8.3±2.3% of that released by completely lysed cells, compared with 2.3±0.8% measured in control cultures. […] After 4 hour treatment, cells were rinsed and returned to growth medium and monitored for viability and growth over the following 3 days. […]

For `O=S1(=O)CCN(CN2CCS(=O)(=O)NC2)CN1` [taurolidine, 4,4'-methylenebis(perhydro-1,2,4-thiadiazin 1,1-dioxide)], the cytotoxicity at 6 h ([1]; 200 μg/ml) was 1.6 ± 0.6%, the cytotoxicity at 6 h ([1]; 500 μg/ml) was 1.4 ± 0.2% and the “inhibition of LPS-induced TF expression” value (tissue factor (TF); MM6, taurolidine 50 μg/ml or higher) was “completely blocked”. The “inhibition of LPS-induced TF expression” value (tissue factor (TF); MM6, taurolidine 10 or 25 μg/ml) was “little or no effect”, the “induction of TF expression (summary)” value (tissue factor (TF); PBMC, MM6 and granulocytes, LPS-induced) was “blocked” and the “trypan blue staining during 4 day growth” value [2] was “did not demonstrate a significant increase in trypan blue staining”. The “trypan blue staining during 4 day growth” value ([2]; listed as Taurolidine) was “cells remained trypan blue negative”.
